From patent US20060069132A1, “Azolecarboxamide herbicides” (priority 2004, published 2006)

Assays:
blackgrass = experiment: Test B postemergence herbicide test; assay type: in vivo, Alopecurus myosuroides; details: postemergence, visual rating, scale 0 (no effect) to 100 (complete control)
Procedure, shortened: (§1)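 Paddy species grown to the 2-leaf stage under flooding; blackgrass sprayed postemergence at 2–18 cm (1- to 4-leaf stage). Plants kept in a greenhouse for 13 to 15 days, then visually rated against controls on 0 (no effect) to 100 (complete control).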

[1] = tested on: small flower umbrella sedge; experiment: Test B flooded paddy test; assay type: in vivo, Cyperus difformis; details: 1000 g ai/ha, visual rating, scale 0 to 100 (0 no effect, 100 complete control), 13 to 15 days
Procedure, shortened: as §1

giant foxtail [2] = experiment: Test A pre-/postemergence herbicide test; assay type: in vivo, Setaria faberi
Procedure, shortened: (§2)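 Pre: seeded sandy loam, directed soil spray, compound in non-phytotoxic solvent + surfactant. Post: 1–2-leaf plants (2–10 cm), sprayed to runoff. Greenhouse ~10 d; visual injury vs untreated, 0–100 scale.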

barnyardgrass [3] = experiment: Test B pre-/postemergence herbicide test; assay type: in vivo, Echinochloa crus-galli; details: for Barnyardgrass plant response rating: postemergence, scale 0 (no effect) to 100 (complete control)
Procedure, shortened: (§3)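 Test chemicals in a non-phytotoxic solvent mixture with surfactant were applied preemergence to seeded species and postemergence to plants 2-18 cm tall (1- to 4-leaf stage); rice and barnyardgrass were also tested in a flooded paddy at the 2-leaf stage. Visual rating versus controls after 13-15 days in greenhouse, scale 0 (no effect) to 100 (complete control).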

morningglory [4] = experiment: Test B pre-/postemergence herbicide test; assay type: in vivo, Ipomoea coccinea; details: for Morningglory plant response rating: postemergence, scale 0 (no effect) to 100 (complete control)
Procedure, shortened: as §3

morningglory [5] = experiment: Test A pre-/postemergence herbicide test; assay type: in vivo, Ipomoea spp.
Procedure, shortened: as §2

Surinam grass = experiment: Test B pre-/postemergence herbicide test; assay type: in vivo, Urochloa decumbens; details: for Surinam Grass plant response rating: postemergence, scale 0 (no effect) to 100 (complete control)
Procedure, shortened: (§4)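 Pre: seeds sown, then sprayed. Post: 1–4-leaf plants (2–18 cm) sprayed at the same time. Paddy: flooded, treated at 2-leaf stage. Formulation: non-phytotoxic solvent with surfactant. Greenhouse 13–15 days; visual 0–100 score relative to controls.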

rice [6] = experiment: Test B flooded paddy test; assay type: in vivo, Oryza sativa; details: 1000 g ai/ha, visual rating, scale 0 to 100 (0 no effect, 100 complete control), 13 to 15 days
Procedure, shortened: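 Plants grow to 1- to 4-leaf stage (2–18 cm) for postemergence spraying, or to 2-leaf stage for the paddy test. Formulated compound is applied. Greenhouse holding lasts 13–15 days. Response is scored visually relative to controls, 0 no effect to 100 complete control; a dash means no result.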

giant foxtail [7] = experiment: Test B pre-/postemergence herbicide test; assay type: in vivo, Setaria faberi; details: for Foxtail, Giant plant response rating: postemergence, scale 0 (no effect) to 100 (complete control)
Procedure, shortened: as §4

velvetleaf [8] = experiment: Test B pre-/postemergence herbicide test; assay type: in vivo, Abutilon theophrasti; details: for Velvetleaf plant response rating: postemergence, scale 0 (no effect) to 100 (complete control)
Procedure, shortened: as §4

cocklebur = experiment: Test B pre-/postemergence herbicide test; assay type: in vivo, Xanthium strumarium; details: for Cocklebur plant response rating: postemergence, scale 0 (no effect) to 100 (complete control)
Procedure, shortened: as §3

velvetleaf [9] = experiment: Test A pre-/postemergence herbicide test; assay type: in vivo, Abutilon theophrasti
Procedure, shortened: as §2

rice [10] = experiment: Test B pre-/postemergence herbicide test; assay type: in vivo, Oryza sativa; details: 0 = no effect, 100 = complete control, preemergence
Procedure, shortened: as §4

barnyardgrass [11] = experiment: Test B flooded paddy test; assay type: in vivo, Echinochloa crus-galli; details: 1000 g ai/ha, visual rating, scale 0 to 100 (0 no effect, 100 complete control), 13 to 15 days
Procedure, shortened: as §1

redroot pigweed = experiment: Test A pre-/postemergence herbicide test; assay type: in vivo, Amaranthus retroflexus
Procedure, shortened: as §2

pigweed = experiment: Test B pre-/postemergence herbicide test; assay type: in vivo, Amaranthus retroflexus; details: for Pigweed plant response rating: postemergence, scale 0 (no effect) to 100 (complete control)
Procedure, shortened: as §4

large crabgrass [12] = experiment: Test B pre-/postemergence herbicide test; assay type: in vivo, Digitaria sanguinalis; details: for Crabgrass, Large plant response rating: postemergence, scale 0 (no effect) to 100 (complete control)
Procedure, shortened: as §4

large crabgrass [13] = experiment: Test A pre-/postemergence herbicide test; assay type: in vivo, Digitaria sanguinalis
Procedure, shortened: as §2

wheat = experiment: Test B postemergence herbicide test; assay type: in vivo, Triticum aestivum; parameters: key to Wheat plant response rating: 0 = no effect, 100 = complete control; details: postemergence, visual rating, scale 0 (no effect) to 100 (complete control)
Procedure, shortened: (§5)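 Read-out: visual comparison with controls, scored 0 to 100, where 100 means complete control and 0 no effect. Formulated chemicals were applied postemergence to plants 2–18 cm tall (1- to 4-leaf), or to flooded-paddy plants at the 2-leaf stage, then held 13 to 15 days under glass.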

ducksalad = experiment: Test B flooded paddy test; assay type: in vivo, Heteranthera limosa; details: 1000 g ai/ha, visual rating, scale 0 to 100 (0 no effect, 100 complete control), 13 to 15 days
Procedure, shortened: as §1

lambsquarters = experiment: Test B pre-/postemergence herbicide test; assay type: in vivo, Chenopodium album; details: for Lambsquarters plant response rating: postemergence, scale 0 (no effect) to 100 (complete control)
Procedure, shortened: as §4

corn = experiment: Test B pre-/postemergence herbicide test; assay type: in vivo, Zea mays; details: for Corn plant response rating: postemergence, scale 0 (no effect) to 100 (complete control)
Procedure, shortened: as §4

wild oat = experiment: Test B postemergence herbicide test; assay type: in vivo, Avena fatua; details: postemergence, visual rating, scale 0 (no effect) to 100 (complete control)
Procedure, shortened: as §5

barnyardgrass [14] = experiment: Test A pre-/postemergence herbicide test; assay type: in vivo, Echinochloa crus-galli
Procedure, shortened: as §2

[15] = Postemergence, 500 g ai/ha, 0 to 100 scale, 0 no effect, 100 complete control
[16] = Postemergence, 2000 g ai/ha, 0 to 100 scale, 0 no effect, 100 complete control
[17] = Preemergence, 2000 g ai/ha, visual rating, 0 to 100 scale (0 no effect, 100 complete control)
[18] = preemergence, 500 g ai/ha, visual injury, 0 to 100 scale (0 no effect, 100 complete control)
[19] = 125 g ai/ha, 0 = no effect, 100 = complete control, preemergence
[20] = 500 g ai/ha, visual rating, 0 = no effect, 100 = complete control, preemergence

With `C#CCNC(=O)c1cccc(NC(=O)c2sc(C(C)(C)C)nc2CC)n1` [Compound 217] the “Blackgrass plant response rating” value (blackgrass; 125 g ai/ha) was 0, the “Blackgrass plant response rating” value (blackgrass; 500 g ai/ha) was 0 and the “Sedge, Umbrella plant response rating” value [1] was 0. For the same compound, the “Foxtail, Giant plant response rating” value (giant foxtail [2]; [15]) was 0, the “Plant response rating, Foxtail, Giant” value (giant foxtail [2]; [16]) was 0 and the “Foxtail, Giant plant response rating” value (giant foxtail [2]; [17]) was 10. For the same compound, the “Foxtail, Giant plant response rating” value (giant foxtail [2]; [18]) was 0, the “Barnyardgrass plant response rating (0 to 100 scale)” value (barnyardgrass [3]; [19]) was 0 and the “Plant response rating, Barnyardgrass” value (barnyardgrass [3]; [20]) was 0. The “Barnyardgrass plant response rating” value (barnyardgrass [3]; 125 g ai/ha, visual rating) was 0, the “Barnyardgrass plant response rating” value (barnyardgrass [3]; 500 g ai/ha, visual rating) was 0 and the “Morningglory plant response rating (0 to 100 scale)” value (morningglory [4]; [19]) was 0. For the same compound, the “Plant response rating, Morningglory” value (morningglory [4]; [20]) was 0, the “Morningglory plant response rating” value (morningglory [4]; 125 g ai/ha, visual rating) was 0 and the “Morningglory plant response rating” value (morningglory [4]; 500 g ai/ha, visual rating) was 10. The “Morningglory plant response rating” value (morningglory [5]; [15]) was 15, the “Plant response rating, Morningglory” value (morningglory [5]; [16]) was 25 and the “Morningglory plant response rating” value (morningglory [5]; [17]) was 0. For the same compound, the “Morningglory plant response rating” value (morningglory [5]; [18]) was 0, the “Surinam Grass plant response rating (0 to 100 scale)” value (Surinam grass; [19]) was 0 and the “Plant response rating, Surinam Grass” value (Surinam grass; [20]) was 0. For the same compound, the “Surinam Grass plant response rating” value (Surinam grass; 125 g ai/ha, visual rating) was 0, the “Surinam Grass plant response rating” value (Surinam grass; 500 g ai/ha, visual rating) was 10 and the “Rice plant response rating” value (rice [6]) was 0. The “Foxtail, Giant plant response rating (0 to 100 scale)” value (giant foxtail [7]; [19]) was 0, the “Plant response rating, Foxtail, Giant” value (giant foxtail [7]; [20]) was 0 and the “Foxtail, Giant plant response rating” value (giant foxtail [7]; 125 g ai/ha, visual rating) was 0. For the same compound, the “Foxtail, Giant plant response rating” value (giant foxtail [7]; 500 g ai/ha, visual rating) was 0, the “Velvetleaf plant response rating (0 to 100 scale)” value (velvetleaf [8]; [19]) was 0 and the “Plant response rating, Velvetleaf” value (velvetleaf [8]; [20]) was 0. The “Velvetleaf plant response rating” value (velvetleaf [8]; 125 g ai/ha, visual rating) was 0, the “Velvetleaf plant response rating” value (velvetleaf [8]; 500 g ai/ha, visual rating) was 10 and the “Cocklebur plant response rating (0 to 100 scale)” value (cocklebur; [19]) was 0. The “Plant response rating, Cocklebur” value (cocklebur; [20]) was 0, the “Cocklebur plant response rating” value (cocklebur; 125 g ai/ha, visual rating) was 0 and the “Cocklebur plant response rating” value (cocklebur; 500 g ai/ha, visual rating) was 0. The “Velvetleaf plant response rating” value (velvetleaf [9]; [15]) was 5, the “Plant response rating, Velvetleaf” value (velvetleaf [9]; [16]) was 30 and the “Velvetleaf plant response rating” value (velvetleaf [9]; [17]) was 5. For the same compound, the “Velvetleaf plant response rating” value (velvetleaf [9]; [18]) was 0, the “Rice plant response rating (0 to 100 scale)” value (rice [10]; 125 g ai/ha) was 0 and the “Plant response rating, Rice” value (rice [10]; 500 g ai/ha, visual rating) was 0. The “Barnyardgrass plant response rating” value (barnyardgrass [11]) was 0, the “Pigweed plant response rating” value (redroot pigweed; [15]) was 10 and the “Plant response rating, Pigweed” value (redroot pigweed; [16]) was 25. For the same compound, the “Pigweed plant response rating” value (redroot pigweed; [17]) was 40, the “Pigweed plant response rating” value (redroot pigweed; [18]) was 0 and the “Pigweed plant response rating (0 to 100 scale)” value (pigweed; [19]) was 0. The “Plant response rating, Pigweed” value (pigweed; [20]) was 0, the “Pigweed plant response rating” value (pigweed; 125 g ai/ha, visual rating) was 0 and the “Pigweed plant response rating” value (pigweed; 500 g ai/ha, visual rating) was 0. The “Crabgrass, Large plant response rating (0 to 100 scale)” value (large crabgrass [12]; [19]) was 0, the “Plant response rating, Crabgrass, Large” value (large crabgrass [12]; [20]) was 0 and the “Crabgrass, Large plant response rating” value (large crabgrass [12]; 125 g ai/ha, visual rating) was 0. The “Crabgrass, Large plant response rating” value (large crabgrass [12]; 500 g ai/ha, visual rating) was 0, the “Crabgrass, Large plant response rating” value (large crabgrass [13]; [15]) was 0 and the “Plant response rating, Crabgrass, Large” value (large crabgrass [13]; [16]) was 20. The “Crabgrass, Large plant response rating” value (large crabgrass [13]; [17]) was 10, the “Crabgrass, Large plant response rating” value (large crabgrass [13]; [18]) was 0 and the “Wheat plant response rating” value (wheat; 125 g ai/ha) was 0. The “Wheat plant response rating” value (wheat; 500 g ai/ha) was 0, the “Ducksalad plant response rating” value (ducksalad) was 0 and the “Lambsquarters plant response rating (0 to 100 scale)” value (lambsquarters; [19]) was 0. The “Plant response rating, Lambsquarters” value (lambsquarters; [20]) was 0, the “Lambsquarters plant response rating” value (lambsquarters; 125 g ai/ha, visual rating) was 0 and the “Lambsquarters plant response rating” value (lambsquarters; 500 g ai/ha, visual rating) was 0. The “Corn plant response rating (0 to 100 scale)” value (corn; [19]) was 0, the “Plant response rating, Corn” value (corn; [20]) was 0 and the “Corn plant response rating” value (corn; 125 g ai/ha, visual rating) was 0. For the same compound, the “Corn plant response rating” value (corn; 500 g ai/ha, visual rating) was 0, the “Oat, Wild plant response rating” value (wild oat; 125 g ai/ha) was 0 and the “Oat, Wild plant response rating” value (wild oat; 500 g ai/ha) was 0. The “Barnyardgrass plant response rating” value (barnyardgrass [14]; [15]) was 0, the “Plant response rating, Barnyardgrass” value (barnyardgrass [14]; [16]) was 0 and the “Barnyardgrass plant response rating” value (barnyardgrass [14]; [17]) was 0. The “Barnyardgrass plant response rating” value (barnyardgrass [14]; [18]) was 0.
